Assay results: PubChem BioAssay (NCI)
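1) Cells in 96-well plates. 2) Compound, 48 h, 5 concentrations. 3) Linear interpolation between surrounding doses. 4) Unreached endpoint = highest concentration. GI50 = concentration required for 50% inhibition of growth. Definition used: TGI = concentration required for complete inhibition of growth.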

What follows are molecules tested on MDA-MB-468 breast (assay: growth of human tumour cells (NCI), 48 h).

Compound	GI50	TGI
C=C(C)[C@@H]1CC[C@]2(C)[C@H](CC[C@@H]3[C@@H]([C@@](C)(O)CCC=C(C)C)CC[C@]32C)[C@@]1(C)CCC(=O)O	22.4 µM	60.4 µM
COc1ccc(-c2noc(N)c2-c2cc(OC)c3c(c2)OCO3)cc1	0.966 µM	7.47 µM
COC(=O)[C@]12CC[C@@H](C)[C@H](C)[C@@H]1C1=CC[C@@H]3[C@@]4(C)C(C=O)=C[C@@](C)(COC(=O)c5ccco5)[C@@H]4[C@H](O)C[C@@]3(C)[C@]1(C)CC2	1.69 µM	5.66 µM
Cn1cc(S(=O)(=O)N2CCC3=Cc4c(cnn4-c4ccc(F)cc4)C[C@]3(C(=O)c3cc(C(F)(F)F)ccn3)C2)cn1	68.8 µM	> 100 µM
O=C(CCN1CCOCC1)Nc1cccc(-n2cc(-c3ccncc3)c(-c3ccc(Cl)c(O)c3)n2)c1	1.25 µM	3.95 µM
NCCCOc1cc2ccccc2cc1C(=O)NCCCOc1cc2ccccc2cc1C(=O)Nc1ccc(Cl)cc1O	0.238 µM	0.821 µM
Oc1ccc(N=Nc2nccs2)c(O)c1	4.76 µM	> 100 µM
NCCCOc1cc(Cl)ccc1NC(=O)c1cc2ccccc2cc1OCCCN	0.543 µM	1.89 µM
Nc1c(C(=O)Nc2ccccc2Cl)sc2nc3c(cc12)C(=O)CCC3	0.324 µM	5.42 µM
CCOC(=O)C1=C(N)Oc2c(sc3c(C)cccc23)C1c1ccc(F)cc1 (configuration not stated)	1.16 µM	8.8 µM
O=C(NC1CCCCC1)c1ccc(Nc2ncnc3c2cnn3-c2ccccc2)cc1	21.7 µM	> 100 µM
COc1ccc(-c2ccc(NNC(=O)c3ccc(F)cc3)nn2)cc1OC	64.3 µM	> 100 µM
COc1cc(/C=C2\CCC/C(=C\c3ccc(OCC4CO4)c(OC)c3)C2=O)ccc1OCC1CO1 (configuration not stated)	1.63 µM	4.85 µM
O=C1/C(=C/N2N=C(c3ccc4ccccc4c3)CC2c2ccccc2O)SC(=S)N1c1cccnc1 (configuration not stated)	1.06 µM	5.33 µM
NC(=O)CNc1ccc([As]=[As]c2ccc(NCC(N)=O)cc2)cc1 (configuration not stated)	1.13 µM	4.09 µM
CN(C)CCNc1nc2ccccc2c2c(=O)c3cc(F)ccc3sc12	1.65 µM	3.22 µM

Compound	GI50	TGI
COc1cc(OC)c2sc(-c3ccc(-n4cncc4-c4cc(OC)c(OC)c(OC)c4)cc3)nc2c1	3.27 µM	> 100 µM
CNC(C)[C@H]1CCC2C3CC=C4C(=O)[C@@H](NC(=O)C=C(C)C)CC[C@]4(C)C3CC[C@@]21C (some centres not stated)	0.939 µM	2.91 µM
Oc1ccc(Oc2cnc3ccccc3n2)cc1	49.4 µM	> 100 µM
CC1(C)N=C(N)N=C(N)N1c1cccc(OCCOc2cccc([N+](=O)[O-])c2)c1	0.463 µM	21.6 µM
COc1ccc2c(c1)C(C)Cc1c(ncnc1-n1cnc3ccccc31)N2C (configuration not stated)	0.293 µM	10.6 µM
O=C1c2ccccc2C(=O)c2c(NCCN=Cc3ccccc3O)cccc21	1.69 µM	4.42 µM
Cn1cc(-c2csc(-c3cn(C)c4ccc(F)cc34)n2)c2cnccc21	1.86 µM	3.53 µM
COc1ccc(-c2nn(-c3cccc(Cl)c3)cc2-c2nc(N)[nH]c(=O)c2C#N)cc1	2.12 µM	6.43 µM
COc1ccc(-c2cc(Nc3ccnc(N4CCOCC4)n3)on2)cc1	0.375 µM	2.49 µM
O=C(N[C@@H](Cc1coc2ccccc12)B(O)O)[C@@H]1C[C@H]2CC[C@@H]1O2	3.38 µM	36 µM
O=C(NNc1cnccn1)c1nc2cc(F)ccc2n2cccc12	0.419 µM	3.03 µM
Cc1noc2c1-c1ccccc1C(c1ccc(Cl)cc1)=N[C@H]2CC(N)=O	1.5 µM	> 64.5 µM
NC(N)=N/N=C(\N=Nc1ccccc1)c1ccc(Cl)cc1	2.12 µM	5.41 µM
Cc1cc(NCCCCNc2ccnc3cc(Cl)ccc23)nc(Nc2ccc(C(=O)N3CCCCC3)cc2)n1	1.37 µM	3.09 µM
Cc1sc2c(c1C)C(c1ccc(Cl)cc1)=N[C@@H](CC(=O)Nc1ccc(OCCOCCOCCOCCNc3cccc4c3C(=O)N(C3CCC(=O)NC3=O)C4=O)cc1)c1nnc(C)n1-2 (some centres not stated)	< 0.0201 µM	> 100 µM
